27 compounds from US11180510B2, “Xanthine derivatives and uses thereof as inhibitors of bromodomains of BET proteins” (Centre national de la recherche scientifique, priority 2017, dated 2021) can be followed below.

By IC50 is commonly meant the concentration that gives 50% inhibition. Low readings indicate greater potency, high ones weaker potency.

Counter-ions that a name gives are not always drawn.

This experiment deals with BRD4(BD1) (Homo sapiens, UniProt O60885). The experiment can be described thus: HTRF assay, BRD4(BD1)/histone peptide interaction. Format: binding. Details: made in house. The note with it: HTRF; triplicates; NA = IC50 > maximal concentration of compound used. The procedure: HTRF assays were performed in white 384 Well Small Volume™ HiBase Polystyrene Microplates (Greiner) with a total working volume of 20 μL. Compounds were dispensed, with 100 nL per well (0.5% final DMSO), from a concentration stock of 10 mM in 100% DMSO and with serial DMSO dilutions, using an Echo® 550 robot from the Access Labcyte platform (Labcyte) and based on the transfer of liquid by acoustic wave. Then, 19.5 μL of buffer is added, using a Multidrop Combi (Thermo Fisher Scientific). […] All HTRF reagents (donor and acceptor) were purchased from CisBio Bioassays and reconstituted according to the supplier protocols. The peptide was purchased from Genic Bio Synthetic. The BRD4(1) protein was produced and purified in the laboratory.
Percentage of inhibition was calculated using the following equation: % inhibition=[(compound signal)−(min signal)]/[(max signal)−(min signal)]*100, where ‘max signal’ is the signal ratio with the compound vehicle alone (DMSO) and ‘min signal’ the signal ratio without peptide.
Selectivity profiles of bromodomain inhibitors were performed as described in HTRF screen section. […] HTRF detection reagents (EPIgeneous™ Binding Domain kits) were purchased from Cisbio Bioassays and used according to supplier's protocol. GST tagged bromodomain proteins were purchased from BPS Bioscience and histone peptide from Genic Bio Synthetic.
A general note: Time-resolved FRET reads energy transfer from a long-lived donor to a nearby acceptor.
`COC(=O)C1CCC(CNS(=O)(=O)c2ccc3c(c2)CCCC(=O)N3)CC1` (stereo not drawn) [Compound 1c, Methyl 4-((2-oxo-2,3,4,5-tetrahydro-1H-benzo[b]azepine-7-sulfonamido)methyl)cyclohexanecarboxylate] showed an IC50 of 53 µM.
In turn, `O=C1CCCc2cc(S(=O)(=O)NCC3CCC(C(=O)NCc4cccs4)CC3)ccc2N1` (stereo not drawn) [Compound 5a] had an IC50 of more than 50 µM.
The compound `O=C1CCCc2cc(S(=O)(=O)NCC3CCC(C(=O)NCc4ccccn4)CC3)ccc2N1` (stereo not drawn) [Compound 6a] displayed a 50% inhibitory concentration (IC50) of 29 µM.
Take `O=C1CCCc2cc(S(=O)(=O)NCC3CCC(C(=O)NCc4ccncc4)CC3)ccc2N1` (stereo not drawn) [Compound 6c]: the half-maximal inhibitory concentration (IC50) is 30 µM.
In the case of `O=C1CCCc2cc(S(=O)(=O)NCC3CCC(C(=O)NCc4cccc(O)c4)CC3)ccc2N1` (stereo not drawn) [Compound 7c] it was 23 µM; in that of `Cc1noc(C)c1CNC(=O)C1CCC(CNS(=O)(=O)c2ccc3c(c2)CCCC(=O)N3)CC1` (stereo not drawn) [Compound 8a], 22 µM; in that of `CS(=O)(=O)NCC1CCC(C(=O)NCCc2cccs2)CC1` (stereo not drawn) [Compound 8c], 18 µM.
Compound `O=C1CCCc2cc(S(=O)(=O)N3CCC(C(=O)NCc4cccs4)CC3)ccc2N1` [Compound 11b] registered an IC50 of more than 50 µM.
The compound `O=C1CCCc2cc(S(=O)(=O)N3CCC(C(=O)NCCc4cccs4)CC3)ccc2N1` [Compound 11c] returned an IC50 of more than 50 µM.
In turn, `O=C1CCCc2cc(S(=O)(=O)NCc3ccc(C(=O)NCc4ccccn4)cc3)ccc2N1` [Compound 14a] came in with an IC50 of more than 25 µM.
Compound `O=C1CCCc2cc(S(=O)(=O)NCc3ccc(C(=O)NCc4cccnc4)cc3)ccc2N1` [Compound 14b] yielded a half-maximal inhibitory concentration (IC50) of more than 25 µM.
In the case of `O=C1CCCc2cc(S(=O)(=O)NCc3ccc(C(=O)NCc4ccncc4)cc3)ccc2N1` [Compound 14c] it was more than 25 µM.
Regarding `O=C1CCCc2cc(S(=O)(=O)NCc3ccc(C(=O)NCc4cccc(O)c4)cc3)ccc2N1` [Compound 15b], the midpoint of inhibition, the IC50, lay at 46 µM.
`CCn1cnc2c1c(=O)[nH]c(=O)n2Cc1ccc(CN)cc1` [Compound 20a, 3-(4-(aminomethyl)benzyl)-7-ethyl-1H-purine-2,6(3H,7H)-dione trifluoroacetic salt] had a half-inhibitory concentration (IC50) of 27 µM.
In the case of `CCn1cnc2c1c(=O)[nH]c(=O)n2Cc1ccc(CNS(C)(=O)=O)cc1` [Compound 20b] it was 4.3 µM.
Compound `CCCS(=O)(=O)NCc1ccc(Cn2c(=O)[nH]c(=O)c3c2ncn3CC)cc1` [Compound 20c] showed an IC50 of 3.6 µM.
On to `CCn1cnc2c1c(=O)[nH]c(=O)n2Cc1ccc(CNS(=O)(=O)CC(C)C)cc1` [Compound 21a], for which the concentration for half-maximal inhibition (IC50) turned out to be 2.9 µM.
`CCn1cnc2c1c(=O)[nH]c(=O)n2Cc1ccc(CNS(=O)(=O)CCOC)cc1` [Compound 21b] gave a half-maximal inhibitory concentration (IC50) of 5.2 µM.
Regarding `CCn1cnc2c1c(=O)[nH]c(=O)n2Cc1ccc(CNS(=O)(=O)CC2CCCC2)cc1` [Compound 21c], the IC50 worked out at 1.4 µM.
As to `CCn1cnc2c1c(=O)[nH]c(=O)n2Cc1ccc(CNS(=O)(=O)CCN2CCOCC2)cc1` [Compound 22a], the IC50 was 4.5 µM.
The compound `CCn1cnc2c1c(=O)[nH]c(=O)n2Cc1ccc(CNS(=O)(=O)CCCN2CCOCC2)cc1` [Compound 22b] came in with a 50% inhibitory concentration (IC50) of 7.5 µM.
In the case of `CCn1cnc2c1c(=O)[nH]c(=O)n2Cc1ccc(CNS(=O)(=O)CCc2ccccc2)cc1` [Compound 22c] it was 1.4 µM.
As to `CCn1cnc2c1c(=O)[nH]c(=O)n2Cc1ccc(CNS(=O)(=O)c2cn(C)cn2)cc1` [Compound 23a], the midpoint of inhibition, the IC50, lay at 3.5 µM.
In turn, `CCn1cnc2c1c(=O)[nH]c(=O)n2Cc1ccc(CNS(=O)(=O)c2cn(C)c(C)n2)cc1` [Compound 23b] yielded a concentration for half-maximal inhibition (IC50) of 1.7 µM.
In the case of `CCc1nc(S(=O)(=O)NCc2ccc(Cn3c(=O)[nH]c(=O)c4c3ncn4CC)cc2)cn1C` [Compound 23c] it was 1.3 µM; in that of `CCn1cnc2c1c(=O)[nH]c(=O)n2Cc1ccc(CNS(=O)(=O)c2ccn(C(C)C)n2)cc1` [Compound 24a], 2.7 µM.
In the case of `CCn1cnc2c1c(=O)[nH]c(=O)n2Cc1ccc(CNS(=O)(=O)c2cc(C)ns2)cc1` [Compound 24c] it was 1.7 µM.
